Assays:
[1] = The drug is tested on Z-003 corresponding to pig gut metagenome with ENA study accession number: PRJEB37062 and ENA sample accession number: ERS12561803 for biotransformation under anaerobic condition. The drug concentrations were measured over 9 timepoints collected between 0 and 24 hours of incubation by liquid-chromatography-coupled mass spectrometry (LC–MS); details: 2 µM
[2] = human gut metagenome, 24 h, 2 µM
[3] = The drug is tested on Z-026 corresponding to metagenome with ENA study accession number: PRJEB37062 and ENA sample accession number: ERS12561825 for biotransformation under anaerobic condition. The drug concentrations were measured over 9 timepoints collected between 0 and 24 hours of incubation by liquid-chromatography-coupled mass spectrometry (LC–MS); details: 2 µM
[4] = The drug is tested on Z-006 corresponding to mouse gut metagenome with ENA study accession number: PRJEB37062 and ENA sample accession number: ERS12561806 for biotransformation under anaerobic condition. The drug concentrations were measured over 9 timepoints collected between 0 and 24 hours of incubation by liquid-chromatography-coupled mass spectrometry (LC–MS); details: 2 µM
[5] = human gut metagenome, 24 h, 2 µM; remark: listed apart in the source
[6] = The drug is tested on Z-012 corresponding to metagenome with ENA study accession number: PRJEB37062 and ENA sample accession number: ERS12561812 for biotransformation under anaerobic condition. The drug concentrations were measured over 9 timepoints collected between 0 and 24 hours of incubation by liquid-chromatography-coupled mass spectrometry (LC–MS); details: 2 µM
[7] = human gut metagenome, 24 h, 2 µM; remark: listed apart in the source
[8] = human gut metagenome, 24 h, 2 µM; remark: listed apart in the source
[9] = human gut metagenome, 24 h, 2 µM; remark: listed apart in the source
[10] = human gut metagenome, 24 h, 2 µM; remark: listed apart in the source
[11] = The drug is tested on Z-028 corresponding to mouse gut metagenome with ENA study accession number: PRJEB37062 and ENA sample accession number: ERS12561827 for biotransformation under anaerobic condition. The drug concentrations were measured over 9 timepoints collected between 0 and 24 hours of incubation by liquid-chromatography-coupled mass spectrometry (LC–MS); details: 2 µM
[12] = human gut metagenome, 24 h, 2 µM; remark: listed apart in the source
[13] = human gut metagenome, 24 h, 2 µM; remark: listed apart in the source
[14] = human gut metagenome, 24 h, 2 µM; remark: listed apart in the source
[15] = The drug is tested on WLS-310 corresponding to human gut metagenome with ENA study accession number: PRJEB37062 and ENA sample accession number: ERS12561785 for biotransformation under anaerobic condition. The drug concentrations were measured over 9 timepoints collected between 0 and 24 hours of incubation by liquid-chromatography-coupled mass spectrometry (LC–MS); details: 2 µM
[16] = human gut metagenome, 24 h, 2 µM; remark: listed apart in the source
[17] = The drug is tested on Z-017 corresponding to mouse gut metagenome with ENA study accession number: PRJEB37062 and ENA sample accession number: ERS12561816 for biotransformation under anaerobic condition. The drug concentrations were measured over 9 timepoints collected between 0 and 24 hours of incubation by liquid-chromatography-coupled mass spectrometry (LC–MS); details: 2 µM
[18] = The drug is tested on WLS-240 corresponding to human gut metagenome with ENA study accession number: PRJEB37062 and ENA sample accession number: ERS12561773 for biotransformation under anaerobic condition. The drug concentrations were measured over 9 timepoints collected between 0 and 24 hours of incubation by liquid-chromatography-coupled mass spectrometry (LC–MS); details: 2 µM
[19] = human gut metagenome, 24 h, 2 µM; remark: listed apart in the source
[20] = human gut metagenome, 24 h, 2 µM; remark: listed apart in the source
Further: call rule not given here.

Compound | Bacterial Biotransformation [1] | Bacterial Biotransformation [2] | Bacterial Biotransformation [3] | Bacterial Biotransformation [4] | Bacterial Biotransformation [5] | Bacterial Biotransformation [6] | Bacterial Biotransformation [7] | Bacterial Biotransformation [8] | Bacterial Biotransformation [9] | Bacterial Biotransformation [10] | Bacterial Biotransformation [11] | Bacterial Biotransformation [12] | Bacterial Biotransformation [13] | Bacterial Biotransformation [14] | Bacterial Biotransformation [15] | Bacterial Biotransformation [16] | Bacterial Biotransformation [17] | Bacterial Biotransformation [18] | Bacterial Biotransformation [19] | Bacterial Biotransformation [20]
O=C(Nc1ccccc1)OCC(CN1CCCCC1)OC(=O)Nc1ccccc1 (stereo not given) [DIPERODON] | Compound metabolized | Compound NOT metabolized | Compound NOT metabolized | Compound NOT metabolized | Compound metabolized | Compound NOT metabolized | Compound metabolized | Compound metabolized | Compound NOT metabolized | Compound NOT metabolized | Compound NOT metabolized | Compound NOT metabolized | Compound metabolized | Compound metabolized | Compound metabolized | Compound NOT metabolized | Compound NOT metabolized | Compound metabolized | Compound metabolized | Compound NOT metabolized
CC(C)N(CCC(C(N)=O)(c1ccccc1)c1ccccn1)C(C)C.O=P(O)(O)O (stereo not given) [DISOPYRAMIDE PHOSPHATE] | Compound NOT metabolized | Compound NOT metabolized | Compound NOT metabolized | Compound NOT metabolized | Compound NOT metabolized | Compound NOT metabolized | Compound NOT metabolized | Compound NOT metabolized | Compound NOT metabolized | Compound NOT metabolized | Compound NOT metabolized | Compound NOT metabolized | Compound metabolized | Compound NOT metabolized | Compound metabolized | Compound NOT metabolized | Compound NOT metabolized | Compound NOT metabolized | Compound NOT metabolized | Compound NOT metabolized
C[C@@H](CO)NC(=O)[C@@H]1C=C2c3cccc4[nH]cc(c34)C[C@H]2N(C)C1.O=C(O)/C=C\C(=O)O [ERGONOVINE MALEATE] | Compound NOT metabolized | Compound metabolized | Compound NOT metabolized | Compound NOT metabolized | Compound metabolized | Compound NOT metabolized | Compound metabolized | Compound metabolized | Compound NOT metabolized | Compound NOT metabolized | Compound NOT metabolized | Compound metabolized | Compound metabolized | Compound NOT metabolized | Compound metabolized | Compound metabolized | Compound NOT metabolized | Compound metabolized | Compound metabolized | Compound NOT metabolized
CCN(CC)C(C)CN1c2ccccc2Sc2ccccc21 (stereo not given) [ETHOPROPAZINE] | Compound metabolized | Compound metabolized | Compound NOT metabolized | Compound NOT metabolized | Compound metabolized | Compound metabolized | Compound metabolized | Compound metabolized | Compound metabolized | Compound NOT metabolized | Compound NOT metabolized | Compound metabolized | Compound metabolized | Compound metabolized | Compound metabolized | Compound metabolized | Compound NOT metabolized | Compound metabolized | Compound metabolized | Compound metabolized
Cc1nc(-c2ccc(OCC(C)C)c(C#N)c2)sc1C(=O)O [FEBUXOSTAT] | Compound metabolized | Compound metabolized | Compound NOT metabolized | Compound NOT metabolized | Compound metabolized | Compound NOT metabolized | Compound metabolized | Compound metabolized | Compound metabolized | Compound metabolized | Compound metabolized | Compound metabolized | Compound metabolized | Compound metabolized | Compound metabolized | Compound metabolized | Compound NOT metabolized | Compound metabolized | Compound metabolized | Compound metabolized
CC(C)(C(=O)O)c1ccc(C(O)CCCN2CCC(C(O)(c3ccccc3)c3ccccc3)CC2)cc1 (stereo not given) [FEXOFENADINE] | Compound NOT metabolized | Compound NOT metabolized | Compound NOT metabolized | Compound NOT metabolized | Compound NOT metabolized | Compound NOT metabolized | Compound NOT metabolized | Compound NOT metabolized | Compound NOT metabolized | Compound NOT metabolized | Compound NOT metabolized | Compound NOT metabolized | Compound NOT metabolized | Compound NOT metabolized | Compound NOT metabolized | Compound NOT metabolized | Compound NOT metabolized | Compound NOT metabolized | Compound NOT metabolized | Compound NOT metabolized

— ChEMBL document CHEMBL5724914, “Linking interpersonal differences in gut microbiota composition and drug biotransformation activity” (2024)
